Data: patent publication EP3052475B1, “PHARMACEUTICAL USE OF 3-BENZYLSULFONYLPROPIONITRILE” (Olatec Therapeutics LLC, priority 2013, dated 2015)

Key:
[1] = system: tail flick reaction to heat; test: tail flick test in mice (49°C water bath); format: in vivo
Method: The tail flick test is a test of the pain response in animals. The tail flick test is used in basic pain research and to measure the effectiveness of analgesics, by observing the tail flick reaction to heat in an animal. This test assesses the nociceptive response to a local pain stimulus, and the ability of a drug to inhibit this response. […] The test compound was administered at a dosage of 500 mg/kg in DMSO. […] Each group had 10 mice. The response of mice to heat stimulus was evaluated by measuring the time of tail-flick or tail-flick latency from 49°C water bath. Briefly, the animal was held with its tail hanging down. Approximately 2 inches of the tail was immersed in a beaker of water at 38±1 °C for about 30 seconds, and this was done twice to acclimate the animal to the procedure. Subsequently, approximately 2 inches of the tail was immersed in a beaker of water at 49±1°C, at which point a timer was started. […] An ANOVA was done, and if p<0.05, a Dunnett's t test was employed to calculate significant difference between vehicle control and test compound treated groups. […] Results of tail flick response from each group are calculated as mean ± SEM (standard error of mean).

[2] = system: arachidonic acid-induced ear swelling; test: topical arachidonic acid-induced ear swelling model in mice; format: in vivo, Male ICR mice; conditions: inhibition of ear swelling vs vehicle, measured at 90 minutes after arachidonic acid application; topical application 30 min before and 15 min after arachidonic acid; indomethacin 14 mM (0.1 mg/20 µL, n=5), test compound 375 mM (1.0 mg/20 µL, n=10); P <0.001
Method: 3-Benzylsulfonylpropionitrile, prepared from Example 1, was used in this experiment.
The test compound, indomethacin (positive control), and vehicle were evaluated for anti-inflammatory activity in a topical arachidonic acid-induced ear swelling model in mice.
Male ICR mice weighing 22 ± 2 g were used and randomly divided; the test compound and vehicle control had 10 mice, and indomethacin had 5 mice. Arachidonic Acid (0.5 mg in 20 µl of acetone:ethanol/1:1) was applied topically to the anterior and posterior surfaces of the right ear of each mice. Test substances and vehicle, as listed in Table 1 were similarly applied 30 min before and 15 min after arachidonic acid application. The thickness of the right ear and the left ear was measured and the difference calculated as an indication of the inflammation in the right ear. Ear swelling was measured by a Dyer model micrometer gauge at 60 and 90 minutes after arachidonic acid application as an index of inflammation. Percent inhibition was calculated according to the formula: Ic - It/Ic x 100, where Ic and It refers to increase of ear thickness (mm) in control and treated mice, respectively. ANOVA and Dunnett's test were employed to ascertain significant difference between vehicle control and treated groups. Significance is set at P<0.05 level.

SMILES	tail flick latency compared with vehicle-treated mice ([1]; mouse, in vivo)	tail flick latency compared with vehicle-treated mice ([1]; 500 mg/kg in DMSO, oral gavage, measured at 30, 60 and 120 minutes post dosing, n=10, significance p<0.05)	% Inhibition [2]
CN1CC[C@]23c4c5ccc(O)c4O[C@H]2[C@@H](O)C=C[C@H]3[C@H]1C5 [morphine, reference compound]	statistically significant tail flick latency at 30 and 60 minutes, but not 120 minutes	–	–
N#CCCS(=O)(=O)Cc1ccccc1 [3-Benzylsulfonylpropionitrile, 3-benzylsulfonylpropionitrile]	–	statistically significant tail flick latency at 30, 60, and 120 minutes	35%
